Experimental data taken from patent EP1422230B1 (priority 2002, dated 2004).
Where a name gives a salt, the structure may show the parent alone. Read-outs that look alike come from different tables or passages of the source.

Key:
[1] = intramuscular injection or intravenous injection; cited from earlier work
[2] = cited from earlier work; for Plasma concentrations: intravenous about 0.3 mg
[3] = tested on: rats; parameters: species or system male Sprague-Dawley rats; conditions: rat, in vivo
[4] = parenteral, on a weight basis; cited from earlier work
[5] = intravenous, single dose of about 0.3 mg

SMILES: CO[C@]12CC[C@@]3(C[C@@H]1[C@](C)(O)C(C)(C)C)[C@H]1Cc4ccc(O)c5c4[C@@]3(CCN1CC1CC1)[C@H]2O5 [Buprenorphine base, (5α, 7α (S)-17-cyclopropyl-methyl)-α -(1,1-dimethylethyl)-4,5-epoxy-18,19-dihydro-3-hydroxy-6-methoxy-α -methyl-6,14-ethenomorphinan-7-methanol]
- duration of action [1]: 6 to 8 h
- Cmax ([2]; 0.4 mg sublingual dose): 0.5 ± 0.06 ng/mL
- Tmax ([2]; 0.4 mg sublingual dose): 3.5 ± 0.667 h
- systemic availability ([2]; 0.4 mg sublingual dose): 57.7±6%
- Total plasma clearance ([2]; conscious postoperative patients): approximately 0.28 L/minute
- mean peak plasma buprenorphine concentrations ([2]; intramuscular second 0.3-mg dose 3 hours after the initial intravenous dose): about 3.6 ng/mL
- plasma buprenorphine concentrations ([2]; intramuscular second 0.3-mg dose, after about 3 hours): about 0.4 ng/mL
- Plasma concentrations ([2]; after about 5 minutes): about 9 ng/mL
- Plasma concentrations ([2]; after about 3 hours): about 0 .4 ng/mL
- mean peak plasma drug concentrations [2, 5]: about 18 ng/mL
- time of mean peak plasma drug concentrations [2, 5]: ≤ 2 min
- duration of analgesic action [3]: 48 to 50 h
- duration of action ([3]; sc): 48 to 50 h
- analgesic potency, times as that of meperidine [4]: about 600 times
- analgesic potency, times as that of pentazocine [4]: about 200 times

SMILES: CO[C@]12CC[C@@]3(C[C@@H]1[C@](C)(O)C(C)(C)C)[C@H]1Cc4ccc(O)c5c4[C@@]3(CCN1CC1CC1)[C@H]2O5 [Buprenorphine HCl]
- Analgesic duration ([3]; HCl): 5 h
- duration of analgesic action ([3]; HCl): 3 to 5 h
